Earlier results on two molecules are cited in publication PMC4061246 (Biochimica et biophysica acta, 2014).

Structures are written as SMILES.

For this data set the following is noted: reported.

In general, aqueous solubility refers to the concentration that dissolves in the medium under given conditions. As for `Cc1cc(C#N)cc(C)c1Oc1nc(Nc2ccc(C#N)cc2)nc(N)c1Br` [etravirine], the aqueous solubility was less than 1 µg/mL.
In the case of `Cc1cc(/C=C/C#N)cc(C)c1Nc1ccnc(Nc2ccc(C#N)cc2)n1` [rilpivirine], the aqueous solubility was 0.02 to 0.24 µg/mL.
